PubChem BioAssay (NCI)
Where “and” joins values, the source holds several entries; their conditions need not be identical. Identical values can stand only once.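 The compound was tested at five concentrations on cells cultured in 96-well plates, with a 48-hour exposure period. Abbreviation: GI50, concentration required for 50% inhibition of growth. The concentration for full growth arrest is given as TGI.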

Legend:
Assay in all cases: DTP human tumour cell line panel, 48 h
SF-295 CNS = tested on: SF-295 CNS
BT-549 breast = tested on: BT-549 breast
KM12 colon = tested on: KM12 colon
A549 NSCLC = tested on: A549 NSCLC
MCF7 breast = tested on: MCF7 breast
SNB-19 CNS = tested on: SNB-19 CNS
CAKI-1 renal = tested on: CAKI-1 renal
OVCAR-4 ovarian = tested on: OVCAR-4 ovarian
HL-60(TB) leukemia = tested on: HL-60(TB) leukemia
MALME-3M melanoma = tested on: MALME-3M melanoma

| SMILES | GI50 (SF-295 CNS) [µM] | TGI (SF-295 CNS) | GI50 (BT-549 breast) [µM] | TGI (BT-549 breast) [µM] | GI50 (KM12 colon) [µM] | TGI (KM12 colon) | GI50 (A549 NSCLC) [µM] | TGI (A549 NSCLC) | GI50 (MCF7 breast) [µM] | TGI (MCF7 breast) [µM] | TGI (SNB-19 CNS) | TGI (CAKI-1 renal) | TGI (OVCAR-4 ovarian) | TGI (HL-60(TB) leukemia) | TGI (MALME-3M melanoma) [µM] | GI50 (SNB-19 CNS) [µM] | GI50 (CAKI-1 renal) [µM] | GI50 (OVCAR-4 ovarian) [µM] | GI50 (HL-60(TB) leukemia) [µM] | GI50 (MALME-3M melanoma) [µM] |
| --- | --- | --- | --- | --- | --- | --- | --- | --- | --- | --- | --- | --- | --- | --- | --- | --- | --- | --- | --- | --- |
| COc1cc2nc(-c3ccc(Cl)cc3)cc(OCCCN3CCOCC3)c2cc1OC | 1.08 | 2.84 µM | 2.59 | > 100 | 3.87 | > 100 µM | 2.02 | > 100 µM | 2.49 | > 100 | – | – | – | – | – | – | – | – | – | – |
| NCCN1CCCCCc2ccccc21 | – | > 10 µM | – | – | – | > 10 µM | – | > 10 µM | – | > 10 | > 10 µM | > 10 µM | > 10 µM | > 10 µM | > 10 | – | – | – | – | – |
| COc1ccc(CNc2cnc3ccc(N)cc3n2)cc1 | – | > 100 µM | – | – | – | > 100 µM | – | > 100 µM | – | – | > 100 µM | > 100 µM | > 100 µM | > 100 µM | > 100 | – | – | – | – | – |
| C[n+]1cc2cc(O)c(O)cc2c2ccc3cc(O)c(O)cc3c21 | – | 38.8 µM | – | 9.93 | – | > 100 µM | – | > 100 µM | – | 9.09 | 16.5 µM | > 37.3 µM | > 100 µM | – | 12.9 | – | – | – | – | – |
| Cc1c(N2CCOCC2)nc2ccc(Cl)cc2c1-c1ccccc1 | – | > 100 µM | – | – | – | > 100 µM | – | > 100 µM | – | – | > 100 µM | > 100 µM | > 100 µM | > 100 µM | > 100 | – | – | – | – | – |
| CCOC1C=CC(=O)C(CO)O1 (stereo not given) | – | 33.2 µM | – | 26.1 | – | 31.5 µM | – | 34.9 µM | – | 17.7 | 42.9 µM | 27.3 µM | 26.5 µM | 20.9 µM | 25.8 | – | – | – | – | – |
| CC(C)NC(=O)OCc1c(COC(=O)NC(C)C)n(C)c2c1ccc1sccc12 | – | > 87.7 µM | – | 10.7 | – | 31.2 µM | – | > 54.2 µM | – | > 55.5 | > 100 µM | 50.1 µM | 36.5 µM | > 100 µM | 13.6 | – | – | – | – | – |
| c1ccc2c(c1)SCCCS2 | – | > 100 µM | – | > 100 | – | > 100 µM | – | > 100 µM | – | > 100 | > 100 µM | – | > 100 µM | > 100 µM | – | – | – | – | – | – |
| Cc1nc2ccc(Cl)cc2c(-n2ccnc2)c1CCn1ccnc1 | – | > 100 µM | – | 69.7 | – | – | – | > 100 µM | – | > 100 | > 100 µM | > 100 µM | > 100 µM | 62.7 µM | 97 | – | – | – | – | – |
| O=[N+]([O-])c1ccc(C[P+]2(c3ccccc3)CCCCC2)cc1 | – | > 100 µM | – | – | – | > 100 µM | – | > 100 µM | – | – | > 100 µM | – | – | > 100 µM | > 100 | – | – | – | – | – |
| Cc1nc2ccccc2nc1CC(=O)C(=O)Nc1ccc(Cl)cc1Cl | – | > 100 µM | – | – | – | > 100 µM | – | > 100 µM | – | – | > 100 µM | > 100 µM | > 100 µM | > 100 µM | > 100 | – | – | – | – | – |
| CC(C)Oc1cccc(N2C(n3ccnc3)=Nc3ccncc3S2(=O)=O)c1 | – | > 100 µM | – | 29 | – | 49.5 µM | – | 37.2 µM | – | 24.1 | 36 µM | 28.3 µM | 33.7 µM | – | 26.6 | – | – | – | – | – |
| O=c1[nH]c(NCc2ccncc2)nc2nc[nH]c12 | – | > 100 µM | – | > 100 | – | > 100 µM | – | > 100 µM | – | > 100 | > 100 µM | > 100 µM | > 100 µM | – | > 100 | – | – | – | – | – |
| Cc1cc([N+](=O)[O-])c(C)c2c1[nH]c1ccc(Cl)cc12 | – | > 100 µM | – | – | – | > 100 µM | – | > 100 µM | – | – | > 100 µM | > 100 µM | > 100 µM | > 100 µM | > 100 | – | – | – | – | – |
| COC(=O)[C@]1(C)CCC[C@@]2(C)C1CC[C@]13C=C(C(C)C)[C@H](CC21)CC3(Cl)C#N (stereo not given in full) | – | > 100 µM | – | 86 | – | > 100 µM | – | > 100 µM | – | > 100 | > 100 µM | > 100 µM | > 100 µM | – | 89.7 | – | – | – | – | – |
| Cc1c2ccnc(C(N)=O)c2c(C)c2c1[nH]c1ccccc12 | 4.37 | 25.6 µM and 22.3 µM | – | – | 0.651 | 47.2 µM and 56.1 µM | 3.28 | 37.1 µM and 15.8 µM | – | 32 | 46.9 µM and 19.9 µM | 9.58 µM and 26.4 µM | 29.7 µM and 93.7 µM | 38.3 µM and > 100 µM | 19.3 | 4.45 | 4.82 | 7.56 | 4.36 | 5.02 |
| S=C(Cc1ccc2c(c1)Sc1ccccc1O2)N1CCOCC1 | – | > 100 µM | – | – | – | > 100 µM | – | > 100 µM | – | > 100 | > 100 µM | > 100 µM | > 100 µM | > 100 µM | 90.2 | – | – | – | – | – |
| COC(=O)CNC(=O)C(CSC(=O)OCC1c2ccccc2-c2ccccc21)NC(=O)CCC(NC(=O)OCC1c2ccccc2-c2ccccc21)C(=O)OC (stereo not given) | – | 31.2 µM | – | 31.3 | – | – | – | 27.5 µM | – | 42.8 | 68.1 µM | 19.9 µM | 33.4 µM | 46.8 µM | 76.8 | – | – | – | – | – |
| Cn1nc(-c2ccc(S(=O)(=O)/N=C(\NN)Nc3ccc(Cl)cc3)s2)cc1C(F)(F)F | – | 31.3 µM | – | 33.3 | – | 31.5 µM | – | 29.3 µM | – | 44.5 | 30.2 µM | 35.1 µM | 29.9 µM | 22.6 µM | – | – | – | – | – | – |
| O=c1c(F)cn2c(=O)n1CCCCCCCn1c(=O)c(F)cn(c1=O)CCCCCCC2 | – | > 100 µM | – | – | – | > 100 µM | – | > 100 µM | – | > 100 | > 100 µM | > 100 µM | 98.4 µM | > 100 µM | 88.8 | – | – | – | – | – |
| CCOC(=O)C1C(c2ccc(Cl)cc2Cl)NC(c2ccc(C)cc2)C(C(=O)OC)S1(=O)=O (stereo not given) | – | > 100 µM | – | – | – | > 100 µM | – | > 100 µM | – | – | > 100 µM | > 100 µM | > 100 µM | > 100 µM | > 100 | – | – | – | – | – |
| Cc1ccc2cccc(-c3cccc4ccccc34)c2n1 | – | 69.8 µM | – | > 100 | – | 63.4 µM | – | > 100 µM | – | – | > 100 µM | > 100 µM | > 100 µM | 16.3 µM | > 100 | – | – | – | – | – |
